Test results published in patent publication US20060173031A1, “Therapeutic agent for schizophrenia” (MITSUBISHI PHARMA CORPORATION, priority 2003, published 2006).

Test system: Phencyclidine (PCP)-induced passive avoidance reaction disorder
Test: Phencyclidine (PCP)-induced passive avoidance reaction disorder in rats
Type: in vivo, Wistar male rats
Settings: 10 mg/kg oral, 30 min before PCP 2 mg/kg i.p.; test trial 24 hr after acquisition trial; max 300 seconds; versus vehicle group

Cc1oc2nc3c(c(NC(=O)CN4CCCC4=O)c2c1C)CCCC3 [compound A, 2-(2-oxopyrrolidin-1-yl)-N-(2,3-dimethyl-5,6,7,8-tetrahydrofuro[2,3-b]quinolin-4-yl)acetamide]
latent time of test trial (passive avoidance reaction): significantly prolonged the latent time shortened by the PCP administration
